Target: T1, Dipeptidyl peptidase 3 (Homo sapiens, UniProt Q9NY33)
T1 sequence (Q9NY33 whole entry): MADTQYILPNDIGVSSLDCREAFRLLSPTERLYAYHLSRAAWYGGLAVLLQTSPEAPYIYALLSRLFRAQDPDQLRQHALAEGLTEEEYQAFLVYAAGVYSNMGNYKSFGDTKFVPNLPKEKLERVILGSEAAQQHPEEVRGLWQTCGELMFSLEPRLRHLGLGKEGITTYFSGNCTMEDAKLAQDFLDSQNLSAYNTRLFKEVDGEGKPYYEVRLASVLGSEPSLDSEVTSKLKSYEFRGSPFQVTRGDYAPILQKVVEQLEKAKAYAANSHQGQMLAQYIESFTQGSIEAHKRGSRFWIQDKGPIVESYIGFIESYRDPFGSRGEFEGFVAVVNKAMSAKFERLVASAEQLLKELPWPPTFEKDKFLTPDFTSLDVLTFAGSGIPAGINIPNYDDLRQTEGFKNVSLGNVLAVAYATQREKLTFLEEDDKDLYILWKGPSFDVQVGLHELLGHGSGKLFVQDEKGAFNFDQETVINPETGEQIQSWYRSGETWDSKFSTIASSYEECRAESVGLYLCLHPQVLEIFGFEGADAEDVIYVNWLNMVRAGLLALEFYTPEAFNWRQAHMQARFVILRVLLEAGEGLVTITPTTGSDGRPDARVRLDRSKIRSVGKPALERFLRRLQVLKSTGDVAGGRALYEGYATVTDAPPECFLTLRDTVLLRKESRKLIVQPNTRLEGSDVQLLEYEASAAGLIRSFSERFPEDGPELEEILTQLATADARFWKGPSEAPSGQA
Assay: DPP III Enzyme Activity Assay
Conditions: pH 7.4; 37 °C
Protocol: The inhibitory activity of flavonoids toward human DPP III was assayed in a 50 mM Tris-HCl buffer, pH 7.4. In brief, recombinant human DPP III (0.29 nM) was preincubated with increasing concentrations of flavonoid first for 1 min at 25°C and then for 3 min at 37°C. The enzymatic reaction was started with Arg-Arg-NA (40 μM) as a substrate, and after the 15 min incubation at 37°C in a water bath, the reaction was stopped and the absorbance was measured using the spectrophotometric method described above[Abramić et al., Biol. Chem. Hoppe-Seyler., 369:29]. The stock solutions of flavonoids were prepared daily in dimethyl sulfoxide (DMSO, Sigma-Aldrich).

| IC50 | Compound |
| --- | --- |
| 32.9 µM | O=c1c(O)c(-c2ccc(O)cc2)oc2cc(O)cc(O)c12 |
| 85 µM | O=c1c(O)c(-c2ccc(O)cc2O)oc2cc(O)cc(O)c12 [2-(2,4-dihydroxyphenyl)-3,5,7-trihydroxychromen-4-one] |
| 24.9 µM | O=c1c(O)c(-c2ccc(O)c(O)c2)oc2cc(O)ccc12 [2-(3,4-dihydroxyphenyl)-3,7-dihydroxy-chromen-4-one] |
| 56.4 µM | O=c1c(O)c(-c2ccccc2)oc2ccc(O)cc12 [3,6-dihydroxy-2-phenyl-4H-chromen-4-one] |
| 98 µM | O=c1c(O)c(-c2ccccc2)oc2cc(O)ccc12 [3,7-dihydroxy-2-phenyl-4H-chromen-4-one] |
| 188 µM | O=c1c(O)c(-c2ccccc2)oc2ccccc12 [3-hydroxy-2-phenyl-4H-chromen-4-one] |
| 123 µM | O=c1cc(-c2ccccc2)oc2cc(O)cc(O)c12 [5,7-dihydroxy-2-phenyl-4H-chromen-4-one] |
| 82.2 µM | O=c1cc(-c2ccccc2)oc2ccc(O)cc12 [6-hydroxy-2-phenyl-4H-chromen-4-one] |
| 437 µM | O=C1C[C@@H](c2ccccc2)Oc2ccccc21 [Flavanone] |
| 36.6 µM | O=c1c(-c2ccc(O)cc2)coc2cc(O)cc(O)c12 [Prunetol] |
| 293 µM | O=c1cc(-c2ccccc2)oc2ccccc12 [flavone] |
| 23.4 µM | O=c1c(O)c(-c2ccccc2)oc2cc(O)cc(O)c12 [norizalpinin] |

| Compound | IC50 |
| --- | --- |
| O=c1c(O)c(-c2ccc(O)c(O)c2)oc2cc(O)cc(O)c12 [2-(3,4-dihydroxyphenyl)-3,5,7-trihydroxy-chromone;hydrate] | 74.1 µM |
| O=c1cc(-c2ccc(O)c(O)c2)oc2cc(O)cc(O)c12 [2-(3,4-dihydroxyphenyl)-5,7-dihydroxy-4H-chromen-4-one] | 22 µM |
| O=c1cc(-c2ccc(O)cc2)oc2cc(O)cc(O)c12 [Naringenin, 18] | 54 µM |
